Experiment [1] relates to perception of sweet taste (panel members). The experiment is described as follows: Qualitative evaluation of the perception of sweet taste by a 5-volunteer panel. Type of experiment: in vivo, healthy men. Also on record: key to Perception of sweet taste: +: perception of sweet taste; ++: very strong perception of sweet taste; −: absence of sweet taste. Particulars: 4000 ppm solution in 20% ethanol, 5 panel members; for Perception of sweet taste: 10 ml mouth rinse 20 s. Here is the method:
Compounds according to the present invention destined for testing of their taste perception modifying properties were re-crystallized from ethanol or an ethanol-water mixture.
Qualitative evaluation of the perception of sweet taste; the examined substances were dissolved in a 20% ethanol and water mixture (vol./vol.).
Three initial solutions were formulated, containing: • the compound of example 1 (3-benzylaminomethylenedihydrofuran-2-one, 4000 ppm solution-400 mg in 100 ml 20% ethanol), • compound of example 2 ((R)-3-(1-phenylethylamino)methylenedihydrofuran-2-one, 4000 ppm solution-400 mg in 100 ml 20% ethanol), • compound of example 6 (2-benzylaminomethylenecyclopentanone, 4000 ppm solution−400 mg in 100 ml 20% ethanol).
Solutions of lower concentrations were obtained through dilution, to appropriate proportions, of the initial solutions with a 20% mixture of ethanol and distilled water (vol./vol.).
Evaluation of the degree of sweetness of the compounds according to the present invention was performed using a 5-volunteer panel—healthy men—henceforth referred to as panel members. All panel members were informed of the need to maintain safety procedures during the evaluation of the compounds according to the present invention, In particular, of the need to avoid swallowing the tested solutions. Each of the panel members received a 10 ml sample of a solution in a small vial and rinsed out their mouth with the entire contents of the vial for 20 seconds and then spit out the tested solution. Next, they carefully rinsed out their mouth with a large volume of distilled water (at least 150 ml) for at least 30 seconds. When the panel member felt that they no longer perceived any taste, they could proceed with the evaluation of the next solution.
During the first stage, the panel members qualitatively examined the taste of the three initial solutions containing 4000 ppm of a compound according to the present invention. The panel members all agreed that the solutions have an intensive sweet taste.
An additional qualitative evaluation was made of compounds according to the present invention from examples 4, 7 and 9, and compounds from comparative examples 1-19, in the form of 4000 ppm solutions. […] Solutions of compounds from the comparative examples lack a sweet taste.

Experiment [2] has as its system sweet taste of sweet-tasting products (panel members). The experiment is described as follows: Inhibition of sweet taste of sweet products, commercial sweeteners and sweet compounds by the compound of example 3. Type of experiment: in vivo, healthy men. Also on record: key to Perceived sweet taste: ++: Strong perception of sweet taste; key to Perception of sweet taste following the addition of the compound of example 3: <<+: Weak or absent perception of sweet taste. Particulars: for Perception of sweet taste following the addition of the compound of example 3 / Sweet taste of the solution with an addition of the compound of example 3 (in words): 100 mg product in 5 ml 20% aqueous ethanol plus 100 mg compound of example 3; for Perceived sweet taste: 100 mg product in 5 ml 20% aqueous ethanol, without compound of example 3. Here is the method:
Evaluation of the degree of sweetness of the compounds according to the present invention was performed using a 5-volunteer panel-healthy men-henceforth referred to as panel members. All panel members were informed of the need to maintain safety procedures during the evaluation of the compounds according to the present invention, In particular, of the need to avoid swallowing the tested solutions. Each of the panel members received a 10 ml sample of a solution in a small vial and rinsed out their mouth with the entire contents of the vial for 20 seconds and then spit out the tested solution. Next, they carefully rinsed out their mouth with a large volume of distilled water (at least 150 ml) for at least 30 seconds. When the panel member felt that they no longer perceived any taste, they could proceed with the evaluation of the next solution. Solutions of sweet products were prepared (saccharose, glucose, bee honey, glycine), by dissolving 100 mg of the product in 5 ml 20% aqueous ethanol. Two solutions are prepared of each product. One of these solutions is supplemented with a compound according to example 3 of the present invention (100 mg). Next, the taste of both solutions is compared for evaluating the qualitative perception of the taste of both solutions, proceeding according to the procedure established above, for the qualitative evaluation of the perception of sweet taste. The study results are compiled in Table 4. Solutions of commercially available sweeteners were prepared (“Sweet Top®” containing aspartame and […]®” containing sorbitol, sodium cyclamate and sodium saccharinate), by dissolving 5 mg of the sweetener in 20 ml of 20% aqueous ethanol. Each sweetener solution was made up twice. One of these solutions was supplemented with a compound according to example 3 of the present invention (5 mg). Next, the taste of both solutions was evaluated proceeding according to the procedure shown above, for the qualitative evaluation of the perception of sweet taste. The study results are compiled in Table 4. Solutions of compounds with a sweet taste according to the present invention were prepared (compounds of examples 1, 2 and 6), dissolving 5 mg of the compound according to the present invention in 20 ml 20% of aqueous ethanol. Two solutions were made of each compound of examples 1, 2 and 6. One of these solutions was supplemented with the compound of example 3 according to the present invention (5 mg). Next, the taste of both solutions was evaluated proceeding according to the above procedure for the qualitative evaluation of the perception of sweet taste. The study results are compiled in Table 4.

As to `CC[C@@H](NC=C1CCOC1=O)c1ccccc1` [Example 4, (R)-3-(1-phenylpropylo)aminomethylenedihydrofuran-2-one], in experiment [1], the “Taste of the solution as described by the panel members” value (“Taste of the solution as described” below) is recorded as “intensively sweet taste” and the “Perception of sweet taste” value is recorded as “++”.

On to `C[C@@H](NC=C1CCCC1=O)c1ccccc1` [Example 7, (R)-2-(1-phenylethyl)aminomethylenecyclopentanone], for which, in experiment [1], the “Taste of the solution as described” value is listed as “intensively sweet taste” and the “Perception of sweet taste” value is “++”.

Take `O=C1OCCC1=CNCc1cccnc1` [Example 9, 3-(3-pirydylomethyl)aminomethylenedihydrofuran-2-one]: in experiment [1], the Bitter side taste result is listed as “somewhat bitter”, the “Taste of the solution as described” value was “significantly less sweet than the solution of 3-benzylaminomethylenedihydrofuran-2-one” and the “Perception of sweet taste” value is given as “+”. Further, the Bitter side taste result in experiment [1] (listed as example 9) was “admixture of a bitter taste”.

Consider `NCC(=O)O` [glycine, reference compound], for which, in experiment [2], the “Perception of sweet taste following the addition of the compound of example 3” value is given as “<<+”; the “Sweet taste of the solution with an addition of the compound of example 3 (in words)” value is given as “do not elicit the perception of a sweet taste, not even a weak one”; the Perceived sweet taste result was “++”.

Take `OC[C@H]1O[C@@](CO)(O[C@H]2O[C@H](CO)[C@@H](O)[C@H](O)[C@H]2O)[C@@H](O)[C@@H]1O` [saccharose, reference compound]: in experiment [2], the “Perception of sweet taste following the addition of the compound of example 3” value was “<<+”; the “Sweet taste of the solution with an addition of the compound of example 3 (in words)” value is “do not elicit the perception of a sweet taste, not even a weak one”; the Perceived sweet taste entry was “++”.

The record behind these values is patent US8846125B2, “Enaminocarbonyl compounds and their use” (Instytut Chemii Organicznej, Polska Akademia Nauk, priority 2009, dated 2014).
